Source: patent US20230085307A1, “PYRIDAZINONE COMPOUND AND HERBICIDE” (NISSAN CHEMICAL CORPORATION, priority 2019, published 2023)

Tests used:
blackgrass [1] = assay: Test Example 4: herbicidal effect by soil treatment (Table 19, symbol J); type: in vivo, blackgrass (Alopecurus myosuroides); conditions: amount of applied herbicide 320 g/ha
Summary of the method: (§1)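 Soil-surface application: an emulsion agent diluted with water to the predetermined dose is sprayed uniformly over seeds lying under roughly 1.5 cm of sterilized diluvial soil. Boxes stay in a greenhouse at 25° C. to 30° C. Three weeks later, each species is graded on previously defined criteria.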

lambsquarters = assay: Test Example 5: herbicidal effect by foliage application, plastic box (Table 20, symbol O); type: in vivo, lambsquarters (Chenopodium album); conditions: 320 g/ha; for herbicidal effect on O: lambsquarters (evaluation grade 0-5): foliage application after 14-day growth, evaluated three weeks after application
Summary of the method: (§2)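 Sow seeds spot-wise in sterilized diluvial soil; cover with ~1.5 cm soil. Grow 14 days in greenhouse, 25° C. to 30° C. Spray foliage with emulsion diluted to predetermined amount. Rate effect after 3 weeks.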

barnyard grass [2] = assay: Test Example 5: herbicidal effect by foliage application, plastic box (Table 20, symbol H); type: in vivo, barnyard grass (Echinochloa crus-galli); conditions: 320 g/ha; for herbicidal effect on H: barnyard grass (evaluation grade 0-5): foliage application after 14-day growth, evaluated three weeks after application
Summary of the method: as §2

windgrass = assay: Test Example 5: herbicidal effect by foliage application, plastic box (Table 20, symbol L); type: in vivo, windgrass (Apera spica-venti); conditions: foliage application, 320 g/ha, three weeks after application
Summary of the method: as §2

barnyard grass [3] = assay: Test Example 3: herbicidal effect by foliage application, Wagner pot (Table 18, symbol H); type: in vivo, barnyard grass (Echinochloa crus-galli); conditions: for herbicidal effect on barnyard grass (H): 320 g/ha
Summary of the method: (§3)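 Plants were sown in alluvial soil held under 0.1–0.5 cm standing water and grown 14 days in a greenhouse at 25–30 °C. An emulsifiable formulation, water-diluted to the set dose, was then sprayed onto the foliage, and effects were scored three weeks later using previously defined criteria.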

Chinese sprangletop = assay: Test Example 3: herbicidal effect by foliage application, Wagner pot (Table 18, symbol D); type: in vivo, chinese sprangletop (Leptochloa chinensis); conditions: for herbicidal effect on Chinese sprangletop (D): 320 g/ha
Summary of the method: as §3

Italian ryegrass = assay: Test Example 5: herbicidal effect by foliage application, plastic box (Table 20, symbol K); type: in vivo, Italian ryegrass (Lolium multiflorum); conditions: 320 g/ha; for herbicidal effect on K: Italian ryegrass (evaluation grade 0-5): foliage application after 14-day growth, evaluated three weeks after application
Summary of the method: as §2

green foxtail [4] = assay: Test Example 4: herbicidal effect by soil treatment (Table 19, symbol G); type: in vivo, green foxtail (Setaria viridis); conditions: amount of applied herbicide 320 g/ha
Summary of the method: as §1

blackgrass [5] = assay: Test Example 5: herbicidal effect by foliage application, plastic box (Table 20, symbol J); type: in vivo, blackgrass (Alopecurus myosuroides); conditions: 320 g/ha; for herbicidal effect on J: blackgrass (evaluation grade 0-5): foliage application after 14-day growth, evaluated three weeks after application
Summary of the method: as §2

rice flat sedge = assay: Test Example 3: herbicidal effect by foliage application, Wagner pot (Table 18, symbol E); type: in vivo, rice flat sedge (Cyperus iria); conditions: for herbicidal effect on rice flat sedge (E): 320 g/ha
Summary of the method: as §3

green foxtail [6] = assay: Test Example 5: herbicidal effect by foliage application, plastic box (Table 20, symbol G); type: in vivo, green foxtail (Setaria viridis); conditions: 320 g/ha; for herbicidal effect on G: green foxtail (evaluation grade 0-5): foliage application after 14-day growth, evaluated three weeks after application
Summary of the method: as §2

redroot pigweed [7] = assay: Test Example 4: herbicidal effect by soil treatment (Table 19, symbol N); type: in vivo, redroot pigweed (Amaranthus retroflexus); conditions: amount of applied herbicide 320 g/ha
Summary of the method: as §1

Japanese bulrush = assay: Test Example 1: herbicidal activity, application before weed generation under submerged conditions (Table 16, symbol B); type: in vivo, Japanese bulrush (Schoenoplectus juncoides); conditions: amount of applied herbicide 320 g/ha
Summary of the method: (§4)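 Submerged Wagner pots (alluvial soil, 4 cm water) sown with weed seeds and planted with 2.5-leaf rice seedlings; emulsifiable concentrate diluted in water applied to water surface on sowing day. Held in greenhouse at 25-30 °C; injury scored 0-5 by herbicidal rate after three weeks.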

redroot pigweed [8] = assay: Test Example 5: herbicidal effect by foliage application, plastic box (Table 20, symbol N); type: in vivo, redroot pigweed (Amaranthus retroflexus); conditions: 320 g/ha; for herbicidal effect on N: redroot pigweed (evaluation grade 0-5): foliage application after 14-day growth, evaluated three weeks after application
Summary of the method: as §2

persian speedwell = assay: Test Example 5: herbicidal effect by foliage application, plastic box (Table 20, symbol R); type: in vivo, Persian speedwell (Veronica persica); conditions: 320 g/ha; for herbicidal effect on R: persian speedwell (evaluation grade 0-5): foliage application after 14-day growth, evaluated three weeks after application
Summary of the method: as §2

velvetleaf = assay: Test Example 5: herbicidal effect by foliage application, plastic box (Table 20, symbol M); type: in vivo, velvetleaf (Abutilon theophrasti); conditions: 320 g/ha; for herbicidal effect on M: velvetleaf (evaluation grade 0-5): foliage application after 14-day growth, evaluated three weeks after application
Summary of the method: as §2

late watergrass = assay: Test Example 1: herbicidal activity, application before weed generation under submerged conditions (Table 16, symbol A); type: in vivo, late watergrass (Echinochloa oryzicola); conditions: amount of applied herbicide 320 g/ha
Summary of the method: as §4

southern crabgrass = assay: Test Example 4: herbicidal effect by soil treatment (Table 19, symbol F); type: in vivo, southern crabgrass (Digitaria ciliaris); conditions: amount of applied herbicide 320 g/ha
Summary of the method: as §1

[9] = foliage application, three weeks after application
[10] = amount of applied herbicide 320 g/ha

SMILES	J: blackgrass, herbicidal effect grade (blackgrass [1])	herbicidal effect on barnyard grass (H) (barnyard grass [3])	herbicidal effect on Chinese sprangletop (D) (Chinese sprangletop)	G: green foxtail, herbicidal effect grade (green foxtail [4])	herbicidal effect on rice flat sedge (E) (rice flat sedge)	N: redroot pigweed, herbicidal effect grade (redroot pigweed [7])	Herbicidal effect, B: Japanese bulrush (Japanese bulrush)	Herbicidal effect, A: late watergrass (late watergrass)	Herbicidal effect by soil treatment, F: southern crabgrass (southern crabgrass)	Herbicidal effect by soil treatment, J: blackgrass (blackgrass [1])	herbicidal effect on O: lambsquarters (evaluation grade 0-5) (lambsquarters)	herbicidal effect on H: barnyard grass (evaluation grade 0-5) (barnyard grass [2])	herbicidal effect on K: Italian ryegrass (evaluation grade 0-5) (Italian ryegrass)	Herbicidal effect by soil treatment, G: green foxtail (green foxtail [4])	herbicidal effect on J: blackgrass (evaluation grade 0-5) (blackgrass [5])	herbicidal effect on G: green foxtail (evaluation grade 0-5) (green foxtail [6])	Herbicidal effect by soil treatment, N: redroot pigweed (redroot pigweed [7])	herbicidal effect on N: redroot pigweed (evaluation grade 0-5) (redroot pigweed [8])	herbicidal effect on R: persian speedwell (evaluation grade 0-5) (persian speedwell)	herbicidal effect on M: velvetleaf (evaluation grade 0-5) (velvetleaf)	other results
CCCC(=O)Oc1c(C)nn(C)c(=O)c1-c1c(-c2ccc(F)cc2OCC)sc2cc(OCC)ccc12 [3-096]	3 (Herbicidal rate of 40% or more and less than 70%)	5 (Herbicidal rate of 90% or more (almost completely withered))	5 (Herbicidal rate of 90% or more (almost completely withered))	4 (Herbicidal rate of 70% or more and less than 90%)	5 (Herbicidal rate of 90% or more (almost completely withered))	5 (Herbicidal rate of 90% or more (almost completely withered))	5 (Herbicidal rate of 90% or more (almost completely withered))	5 (Herbicidal rate of 90% or more (almost completely withered))	–	–	–	–	–	–	–	–	–	–	–	–	O: lambsquarters, herbicidal effect grade (lambsquarters; [9]): 5 (Herbicidal rate of 90% or more (almost completely withered)); H: barnyard grass, herbicidal effect grade (barnyard grass [2]; [9]): 5 (Herbicidal rate of 90% or more (almost completely withered)); L: windgrass, herbicidal effect grade (windgrass): 5 (Herbicidal rate of 90% or more (almost completely withered)); K: Italian ryegrass, herbicidal effect grade (Italian ryegrass; [9]): 3 (Herbicidal rate of 40% or more and less than 70%); J: blackgrass, herbicidal effect grade (blackgrass [5]; [9]): 5 (Herbicidal rate of 90% or more (almost completely withered)); G: green foxtail, herbicidal effect grade (green foxtail [6]; [9]): 4 (Herbicidal rate of 70% or more and less than 90%); N: redroot pigweed, herbicidal effect grade (redroot pigweed [8]; [9]): 5 (Herbicidal rate of 90% or more (almost completely withered)); R: persian speedwell, herbicidal effect grade (persian speedwell; [9]): 5 (Herbicidal rate of 90% or more (almost completely withered)); M: velvetleaf, herbicidal effect grade (velvetleaf; [9]): 5 (Herbicidal rate of 90% or more (almost completely withered))
C=C(C)C(=O)Oc1c(C)nn(C)c(=O)c1-c1c(-c2ccccc2OC)sc2cc(OC)ccc12 [3-155]	–	5 (Herbicidal rate of 90% or more (almost completely withered))	4 (Herbicidal rate of 70% or more and less than 90%)	–	4 (Herbicidal rate of 70% or more and less than 90%)	–	5 (Herbicidal rate of 90% or more (almost completely withered))	5 (Herbicidal rate of 90% or more (almost completely withered))	0 (Herbicidal rate of 5% or less (almost no effect))	4 (Herbicidal rate of 70% or more and less than 90%)	4 (Herbicidal rate of 70% or more and less than 90%)	5 (Herbicidal rate of 90% or more (almost completely withered))	4 (Herbicidal rate of 70% or more and less than 90%)	0 (Herbicidal rate of 5% or less (almost no effect))	5 (Herbicidal rate of 90% or more (almost completely withered))	5 (Herbicidal rate of 90% or more (almost completely withered))	4 (Herbicidal rate of 70% or more and less than 90%)	5 (Herbicidal rate of 90% or more (almost completely withered))	5 (Herbicidal rate of 90% or more (almost completely withered))	5 (Herbicidal rate of 90% or more (almost completely withered))	–
CCCC(=O)Oc1c(C)nn(C)c(=O)c1-c1c(-c2ccc(OC)cc2)sc2c(F)cccc12 [4-006]	–	5 (Herbicidal rate of 90% or more (almost completely withered))	5 (Herbicidal rate of 90% or more (almost completely withered))	–	5 (Herbicidal rate of 90% or more (almost completely withered))	–	3 (Herbicidal rate of 40% or more and less than 70%)	3 (Herbicidal rate of 40% or more and less than 70%)	0 (Herbicidal rate of 5% or less (almost no effect))	0 (Herbicidal rate of 5% or less (almost no effect))	3 (Herbicidal rate of 40% or more and less than 70%)	4 (Herbicidal rate of 70% or more and less than 90%)	4 (Herbicidal rate of 70% or more and less than 90%)	4 (Herbicidal rate of 70% or more and less than 90%)	1 (Herbicidal rate of 5% or more and less than 20%)	4 (Herbicidal rate of 70% or more and less than 90%)	4 (Herbicidal rate of 70% or more and less than 90%)	5 (Herbicidal rate of 90% or more (almost completely withered))	3 (Herbicidal rate of 40% or more and less than 70%)	5 (Herbicidal rate of 90% or more (almost completely withered))	–
CSc1ccc(-c2oc3ccc(F)cc3c2-c2c(O)c(C)nn(C)c2=O)cc1 [9-037]	0 (Herbicidal rate of 5% or less (almost no effect))	–	–	1 (Herbicidal rate of 5% or more and less than 20%)	–	5 (Herbicidal rate of 90% or more (almost completely withered))	0 (Herbicidal rate of 5% or less (almost no effect))	3 (Herbicidal rate of 40% or more and less than 70%)	–	–	–	–	–	–	–	–	–	–	–	–	F: southern crabgrass, herbicidal effect grade (southern crabgrass): 4 (Herbicidal rate of 70% or more and less than 90%); herbicidal effect on lambsquarters (O) (lambsquarters; [9]): 5 (Herbicidal rate of 90% or more (almost completely withered)); herbicidal effect on barnyard grass (H) (barnyard grass [2]; [9]): 4 (Herbicidal rate of 70% or more and less than 90%); herbicidal effect on windgrass (L) (windgrass): 5 (Herbicidal rate of 90% or more (almost completely withered)); Herbicidal effect on H (barnyard grass), foliage application (barnyard grass [3]; [10]): 5 (Herbicidal rate of 90% or more (almost completely withered)); Herbicidal effect on D (Chinese sprangletop), foliage application (Chinese sprangletop; [10]): 2 (Herbicidal rate of 20% or more and less than 40%); herbicidal effect on Italian ryegrass (K) (Italian ryegrass; [9]): 5 (Herbicidal rate of 90% or more (almost completely withered)); herbicidal effect on blackgrass (J) (blackgrass [5]; [9]): 2 (Herbicidal rate of 20% or more and less than 40%); Herbicidal effect on E (rice flat sedge), foliage application (rice flat sedge; [10]): 5 (Herbicidal rate of 90% or more (almost completely withered)); herbicidal effect on green foxtail (G) (green foxtail [6]; [9]): 5 (Herbicidal rate of 90% or more (almost completely withered)); herbicidal effect on persian speedwell (R) (persian speedwell; [9]): 5 (Herbicidal rate of 90% or more (almost completely withered)); herbicidal effect on velvetleaf (M) (velvetleaf; [9]): 5 (Herbicidal rate of 90% or more (almost completely withered))
